Test results published in patent US20050209278A1, “Piperidinyl- and piperazinyl-sulfonylmethyl hydroxamic acids and their use as protease inhibitors” (priority 2002, published 2005).

What was measured:
[1] = biological target: T1, MMP-14 (Homo sapiens, UniProt P50281); test: In vitro MMP inhibition, Ki determination (fluorogenic substrate II); assay type: biochemical; conditions: value outside parentheses; read-out: MMP-14 Ki
T1 construct: The catalytic domain enzyme was expressed in E. coli inclusion bodies, solubilized in urea; made in house
Procedure, shortened: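 E. coli-expressed, refolded MMP-14 catalytic domain, activated with APMA or trypsin, in 100 mM Tris-HCl pH 7.5, 100 mM NaCl, 10 mM CaCl2, 0.05% Brij-type detergent. Apparent Ki by Morrison-equation regression of velocity vs inhibitor and enzyme concentration.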

[2] = biological target: T2, MMP-9 (Homo sapiens, UniProt P14780); test: as above; assay type: biochemical; conditions: value outside parentheses
T2 construct: made in house; host or cells: MMP-9-transfected HT1080 cells (spent media)
Procedure, shortened: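 HT1080-derived MMP-9, activated with APMA, trypsin or MMP-3, incubated 1 hr at room temperature with inhibitor and 4 μM fluorogenic substrate II (at or below Km) in pH 7.5 Tris/NaCl/CaCl2 buffer; ex 330/em 420 nm. Ki from Morrison-equation regression, without substrate correction.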

T2 sequence (P14780 107-707 limits assumed): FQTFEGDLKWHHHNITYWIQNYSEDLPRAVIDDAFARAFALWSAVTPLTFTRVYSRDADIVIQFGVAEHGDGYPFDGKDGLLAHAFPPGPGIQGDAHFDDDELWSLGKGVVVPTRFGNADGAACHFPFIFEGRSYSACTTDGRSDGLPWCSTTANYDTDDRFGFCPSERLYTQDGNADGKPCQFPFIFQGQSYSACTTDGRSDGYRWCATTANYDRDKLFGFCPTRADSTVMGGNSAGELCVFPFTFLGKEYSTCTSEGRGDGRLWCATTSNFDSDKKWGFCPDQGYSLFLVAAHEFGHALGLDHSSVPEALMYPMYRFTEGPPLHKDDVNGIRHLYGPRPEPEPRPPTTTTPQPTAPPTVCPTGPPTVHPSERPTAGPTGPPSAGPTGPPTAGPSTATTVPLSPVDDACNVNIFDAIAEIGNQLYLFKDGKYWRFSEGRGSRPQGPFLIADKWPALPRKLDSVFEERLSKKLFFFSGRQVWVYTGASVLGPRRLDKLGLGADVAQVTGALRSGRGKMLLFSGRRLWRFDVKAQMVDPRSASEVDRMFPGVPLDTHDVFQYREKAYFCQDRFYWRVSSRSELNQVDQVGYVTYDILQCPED

Row | SMILES | Ki [1] [µM] | Ki [2] [µM]
1 | O=C(NO)C1(S(=O)(=O)N2CCC(COCC(F)(F)C(F)(F)F)CC2)CCOCC1 [Example 376] | 3.12 | 0.114
2 | O=C(NO)C1(S(=O)(=O)N2CCC(COCC(F)(F)C(F)(F)C(F)(F)F)CC2)CCOCC1 [Example 377] | > 10 | 0.174
3 | O=C(NO)C1(S(=O)(=O)N2CCC(COCC(F)(F)C(F)(F)C(F)(F)C(F)F)CC2)CCOCC1 [Example 378] | > 10 | 0.219
4 | CCCCCc1ccc(-c2cnc(N3CCN(S(=O)(=O)C4(C(=O)NO)CCOCC4)CC3)s2)cc1 [Example 380] | 3.21 | 0.0162
5 | NC(=O)c1ccccc1-c1cnc(N2CCN(S(=O)(=O)C3(C(=O)NO)CCOCC3)CC2)s1 [Example 383] | > 10 | 9.52
6 | O=C(NO)C1(S(=O)(=O)N2CCC(c3ccc(OCC(F)(F)C(F)F)cc3)CC2)CCN(CCN2CCOCC2)CC1 [Example 385] | 2.93 | 0.000829
7 | O=C(NO)C1(S(=O)(=O)N2CCN(c3ccc(CCCC(F)(F)F)cc3F)CC2)CCOCC1 [Example 386] | > 10 | 0.0049
8 | O=C(NO)C1(S(=O)(=O)N2CCN(c3ncc(-c4ccccn4)s3)CC2)CCOCC1 [Example 387] | 4.55 | 0.0346
9 | CCCCc1ccc(C2CCN(S(=O)(=O)C3(C(=O)NO)CCNCC3)CC2)nc1 [Example 388] | > 10 | 0.0023
10 | O=C(NO)C1(S(=O)(=O)N2CCN(c3ccc(CCCC(F)(F)F)c(F)c3)CC2)CCOCC1 [Example 389] | 3.17 | 0.00134
11 | O=C(NO)C1(S(=O)(=O)N2CCC(c3ccc(-c4cccnc4)cn3)CC2)CCOCC1 [Example 390] | > 10 | 0.0532
12 | CCCCc1ccc(C2CCN(S(=O)(=O)C3(C(=O)NO)CCN(CC)CC3)CC2)nc1 [Example 396] | 7.65 | 0.00039

These reach a lower Ki [1]. Values come first.

Row | Ki [1] [µM] | Ki [2] [µM] | SMILES
13 | 1.76 | 0.0294 | O=C(NO)C1(S(=O)(=O)N2CCC(c3ccc(-c4ccc(C(F)(F)F)cc4)cn3)CC2)CCOCC1 [Example 395]
14 | 1.29 | 0.00233 | O=C(NO)C1(S(=O)(=O)N2CCC(c3ccc(-c4ccccc4)cn3)CC2)CCOCC1 [Example 392]
15 | 0.931 | 0.00152 | O=C(NO)C1(S(=O)(=O)N2CCC(c3ccc(-c4cccs4)cn3)CC2)CCOCC1 [Example 394]
16 | 0.867 | 0.0064 | N#Cc1cccc(-c2cnc(N3CCN(S(=O)(=O)C4(C(=O)NO)CCOCC4)CC3)s2)c1 [Example 384]
17 | 0.778 | 0.00426 | O=C(NO)C1(S(=O)(=O)N2CCN(c3ncc(-c4cccnc4)s3)CC2)CCOCC1 [Example 382]
18 | 0.283 | 0.00397 | CCCCc1ccc(-c2cnc(N3CCN(S(=O)(=O)C4(C(=O)NO)CCOCC4)CC3)s2)cc1 [Example 379]
19 | 0.0541 | 0.00103 | CCc1ccc(-c2cnc(N3CCN(S(=O)(=O)C4(C(=O)NO)CCOCC4)CC3)s2)cc1 [Example 381]
